This note sets out measurements from ChEMBL document CHEMBL5143618, “Design, synthesis, and antitumor activity evaluation of novel acyl sulfonamide spirodienones” (Bioorg Med Chem, 2022).

For one test, the system named is HeLa. Put plainly: cells. Format: functional, cell-based. As to conditions: Homo sapiens, 74 h.
Another test concerns HepG2. Put plainly: Antiproliferative activity against human HepG2 cells assessed as inhibition of cell growth measured after 74 hrs by SRB assay. As to conditions: HepG2, 74 h. Format: functional, cell-based. (In SRB staining, fixed cells bind dye roughly in proportion to their protein.)
For another test, the system named is A549. Put plainly: cells. The format is functional, cell-based. As to conditions: Homo sapiens, A549, 74 h.
For test [1], the system named is MDA-MB-231. Put plainly: cells. As to conditions: Homo sapiens, MDA-MB-231, 74 h. The format is functional, cell-based.
Description: Antiproliferative activity against human MDA-MB-231 cells assessed as inhibition of cell growth measured after 74 hrs by SRB assay
For test [2], the system named is MDA-MB-231. Put plainly: Induction of apoptosis in human MDA-MB-231 cells assessed as viable cells at 10 uM incubated for 24 hrs by annexin V-FITC and PI staining based flow cytometry analysis (reference value: 93.6 %). As to conditions: read-out: Activity. The format is functional.
Test [3] concerns MDA-MB-231. Kind of test: Induction of cell cycle arrest in human MDA-MB-231 cells assessed as accumulation of cells in G2/G1 phase at 10 uM incubated for 24 hrs by PI staining based flow cytometry analysis (reference value: 1.80 %). The format is functional. Background: A flow cytometer gives signals particle by particle.
For test [4], the system named is MDA-MB-231. Put plainly: Induction of apoptosis in human MDA-MB-231 cells assessed as necrotic cells at 10 uM incubated for 24 hrs by annexin V-FITC and PI staining based flow cytometry analysis (reference value: 0.68 %). The format is functional.
Test [5] has as its system MDA-MB-231. Kind of test: Induction of apoptosis in human MDA-MB-231 cells assessed as late apoptotic cells at 10 uM incubated for 24 hrs by annexin V-FITC and PI staining based flow cytometry analysis (reference value: 1.02 %). Format: functional.
Test [6] relates to MDA-MB-231. Kind of test: Induction of cell cycle arrest in human MDA-MB-231 cells assessed as accumulation of cells in G2 phase at 10 uM incubated for 24 hrs by PI staining based flow cytometry analysis (reference value: 8.95 %). The format is functional.
Test [7] has as its system MDA-MB-231. Kind of test: Induction of cell cycle arrest in human MDA-MB-231 cells assessed as accumulation of cells in G1 phase at 10 uM incubated for 24 hrs by PI staining based flow cytometry analysis (reference value: 74.44 %). Format: functional.
Test [8] has as its system MDA-MB-231. Put plainly: Induction of cell cycle arrest in human MDA-MB-231 cells assessed as accumulation of cells in S phase at 10 uM incubated for 24 hrs by PI staining based flow cytometry analysis (reference value: 16.61 %). Format: functional.
For test [9], the system named is MDA-MB-231. Kind of test: Induction of apoptosis in human MDA-MB-231 cells assessed as early apoptotic cells at 10 uM incubated for 24 hrs by annexin V-FITC and PI staining based flow cytometry analysis (reference value: 4.66 %). Format: functional.
Test [10] deals with 72 kDa type IV collagenase (Homo sapiens, UniProt P08253). Put plainly: Inhibition of MMP2 (unknown origin) using Mca-PLGLDpaAR fluorescent substrate incubated for 2 hrs by microplate reader method.
Sequence of 72 kDa type IV collagenase (P08253 whole entry): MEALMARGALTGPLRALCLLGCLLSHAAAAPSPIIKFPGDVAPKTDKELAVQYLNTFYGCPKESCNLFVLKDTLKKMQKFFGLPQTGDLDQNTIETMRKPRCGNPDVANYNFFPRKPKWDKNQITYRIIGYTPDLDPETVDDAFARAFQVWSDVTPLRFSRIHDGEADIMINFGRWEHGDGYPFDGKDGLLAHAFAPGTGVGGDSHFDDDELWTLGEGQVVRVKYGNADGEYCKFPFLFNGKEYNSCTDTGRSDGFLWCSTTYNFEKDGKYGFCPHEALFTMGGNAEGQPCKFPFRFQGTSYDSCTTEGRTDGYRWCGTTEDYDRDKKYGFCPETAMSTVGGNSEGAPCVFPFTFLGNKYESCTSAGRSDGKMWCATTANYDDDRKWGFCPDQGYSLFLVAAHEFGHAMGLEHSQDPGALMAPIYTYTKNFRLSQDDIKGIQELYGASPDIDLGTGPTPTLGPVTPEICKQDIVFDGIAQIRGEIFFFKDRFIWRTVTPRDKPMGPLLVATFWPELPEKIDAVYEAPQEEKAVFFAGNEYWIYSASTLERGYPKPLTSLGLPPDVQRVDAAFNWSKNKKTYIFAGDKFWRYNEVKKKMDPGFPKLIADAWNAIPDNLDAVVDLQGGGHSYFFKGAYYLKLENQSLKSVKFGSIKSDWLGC

Description for A549: Antiproliferative activity against human A549 cells assessed as inhibition of cell growth measured after 74 hrs by SRB assay
Description for HeLa: Antiproliferative activity against human HeLa cells assessed as inhibition of cell growth measured after 74 hrs by SRB assay

In the case of `O=C1C=CC2(C=C1)OCC(=O)N2S(=O)(=O)c1ccc(Br)s1`, the concentration for half-maximal inhibition (IC50) with HeLa was 30 nM; in the test with HepG2, 240 nM; in the test on A549 it was 0.05 µM; in the test with MDA-MB-231 [1], more than 10 µM.

In the case of `CC1OC2(C=CC(=O)C=C2)N(S(=O)(=O)c2cccs2)C1=O` (configuration not stated), the half-maximal inhibitory concentration (IC50) was 270 nM in the test on HeLa, more than 10000 nM in the test on HepG2, more than 10 µM in the test with A549 and more than 10 µM in the test on MDA-MB-231 [1].

Regarding `O=C1C=CC2(C=C1)OCC(=O)N2S(=O)(=O)c1ccccc1OC(F)(F)F`, the IC50 was 140 nM with HeLa, more than 10000 nM with HepG2, more than 10 µM in the test on A549 and more than 10 µM in the test with MDA-MB-231 [1].

Turning to `O=C1C=CC2(C=C1)OCC(=O)N2S(=O)(=O)c1ccccc1C(F)(F)F`, the IC50 is 20 nM in the test with HeLa, 590 nM with HepG2, more than 10 µM in the test on A549 and more than 10 µM in the test on MDA-MB-231 [1].

`O=C1C=CC2(C=C1)OCC(=O)N2S(=O)(=O)c1ccccc1`: the half-maximal inhibitory concentration (IC50) with HeLa was more than 10000 nM; in the test with HepG2, more than 10000 nM; in the test with A549, more than 10 µM; with MDA-MB-231 [1] it was more than 10 µM.

Turning to `O=C1C=CC2(C=C1)OCC(=O)N2S(=O)(=O)c1ccc(C(F)(F)F)cc1`, the concentration for half-maximal inhibition (IC50) in the test with HeLa was 770 nM; with HepG2, 750 nM; in the test on A549, more than 10 µM; in the test with MDA-MB-231 [1] it was 2.1 µM.

As to `Cc1ccccc1S(=O)(=O)N1C(=O)COC12C=CC(=O)C=C2`, the half-maximal inhibitory concentration (IC50) in the test on HeLa is 3720 nM; in the test with HepG2, 750 nM; in the test with A549, more than 10 µM; with MDA-MB-231 [1], more than 10 µM.

Take `CC(=O)O[C@H]1C(=O)[C@@]2(C)[C@H]([C@H](OC(=O)c3ccccc3)[C@]3(O)C[C@H](OC(=O)[C@H](O)[C@@H](NC(=O)c4ccccc4)c4ccccc4)C(C)=C1C3(C)C)[C@]1(OC(C)=O)CO[C@@H]1C[C@@H]2O` [PACLITAXEL]: in the test with HepG2, the concentration for half-maximal inhibition (IC50) turned out to be 13 nM.

In the case of `O=C1C=CC2(C=C1)OCC(=O)N2S(=O)(=O)c1cccc(C(F)(F)F)c1`, the IC50 in the test on HeLa is 570 nM; in the test on HepG2 it was more than 10000 nM; with A549, 9.61 µM; in the test on MDA-MB-231 [1], more than 10 µM.

Turning to `O=C1C=CC2(C=C1)OCC(=O)N2S(=O)(=O)c1ccc([N+](=O)[O-])cc1`, the IC50 is more than 10000 nM in the test with HeLa, more than 10000 nM in the test with HepG2, more than 10 µM with A549 and more than 10 µM with MDA-MB-231 [1].

Take `COc1ccc(S(=O)(=O)N2C(=O)COC23C=CC(=O)C=C3)cc1`: the concentration for half-maximal inhibition (IC50) is 880 nM in the test with HeLa, 1620 nM with HepG2, more than 10 µM in the test on A549 and more than 10 µM in the test on MDA-MB-231 [1].

In the case of `Cc1ccc(S(=O)(=O)N2C(=O)C(C)OC23C=CC(=O)C=C3)cc1` (configuration not stated), the IC50 with HeLa is more than 10000 nM; in the test on HepG2 it was 540 nM; in the test with A549 it was more than 10 µM; with MDA-MB-231 [1], 1.1 µM.

For the molecule `O=C1C=CC2(C=C1)OCC(=O)N2S(=O)(=O)c1ccc(N2CCCC2=O)cc1`, the half-inhibitory concentration (IC50) with HeLa is 880 nM; with HepG2, more than 10000 nM; with A549, 0.005 µM; with MDA-MB-231 [1], more than 10 µM.

Regarding `COc1ccc(/C=C\c2cc(OC)c(OC)c(OC)c2)cc1O` [COMBRETASTATIN A4], the viability at 10 µM with MDA-MB-231 [2] was determined as 73.7%. The Activity in the test with MDA-MB-231 [3] is listed as 1.8%; in the test with MDA-MB-231 [4], 0.73%; with MDA-MB-231 [5], 4.95%; in the test with MDA-MB-231 [6] it was 91.6%; with MDA-MB-231 [7] it was 8.4%; with MDA-MB-231 [8], 0%. In addition, in the test with MDA-MB-231 [9], the Activity was determined as 20.6%.

Regarding `O=C1C=CC2(C=C1)OCC(=O)N2S(=O)(=O)c1ccc(Cl)cc1`, the 50% inhibitory concentration (IC50) in the test on HeLa is more than 10000 nM; in the test on HepG2, 860 nM; in the test on A549, more than 10 µM; with MDA-MB-231 [1] it was 2.8 µM.

Consider `O=C1C=CC2(C=C1)OCC(=O)N2S(=O)(=O)c1ccc(F)c(F)c1`, for which the IC50 with HeLa was 30 nM; in the test on HepG2 it was more than 10000 nM; in the test on A549, 0.05 µM; in the test with MDA-MB-231 [1], more than 10 µM.

Regarding `N#Cc1cccc(S(=O)(=O)N2C(=O)COC23C=CC(=O)C=C3)c1`, the IC50 is 180 nM with HeLa, more than 10000 nM with HepG2, 1.91 µM in the test with A549 and more than 10 µM with MDA-MB-231 [1].

On to `CS(=O)(=O)N1C(=O)COC12C=CC(=O)C=C2`, for which the 50% inhibitory concentration (IC50) was 7530 nM in the test with HeLa, more than 10000 nM in the test on HepG2, more than 10 µM with A549 and more than 10 µM in the test with MDA-MB-231 [1].

For the molecule `O=C1C=CC2(C=C1)OCC(=O)N2S(=O)(=O)c1ccc(OC(F)(F)F)cc1`, the IC50 is more than 10000 nM in the test with HeLa, more than 10000 nM in the test on HepG2, 0.04 µM in the test on A549 and more than 10 µM with MDA-MB-231 [1].

As to `O=C1C=CC2(C=C1)OCC(=O)N2S(=O)(=O)c1cccs1`, the concentration for half-maximal inhibition (IC50) in the test on HeLa was 3420 nM; in the test on HepG2, more than 10000 nM; in the test on A549, more than 10 µM; in the test on MDA-MB-231 [1], 0.02 µM.

Turning to `COc1ccc(S(=O)(=O)N(CC(=O)NO)CC(C)C)cc1`, the IC50 in test [10] amounted to 0.59 nM.

The IC50 is the concentration that inhibits the measured activity by half.
